Laboratory results taken from patent EP0164478A2, “Citric-acid salt of (-)vinburnine and process for its preparation” (COVEX (S.A.), priority 1984, dated 1985).
Counter-ions that a name gives are not always drawn.

Assays:
[1] = DL50 in the dog, intravenous administration; type: in vivo, chien; conditions: i.v.; for DL50: relative to vinburnine = 1,0 (arbitrary)
Text: Les propriétés pharmacologiques du citrate de vinburnine ont été utlisées en thérapie avec de bons résultats.

[2] = tested on: consommation cérébrale du C14-desoxyglucose; assay: Cerebral consumption of C14-labelled deoxyglucose in dogs (Fig. 1); type: in vivo, chiens; conditions: 1 à 4 Mg/kg, C14-deoxyglucose given orally, compared with untreated animal and with vinburnine (Fig. 1)
Text: (§1) L'invention sera mieux comprise à la lecture du complément de description qui suit se référant aux dessins annexés dans lesquels: • - La Fig.l est une illustration graphique de l'augmentation de consommation cérébrale de desoxyglucose chez un animal traité avec le citrate de vinburnine • - La Fig.2, est une illustration graphique de l'augmentation de la dissociation de l'oxyhémoglobine chez un animal traité avec le citrate de vinburnine. Dans l'étude sur l'augmentation de la consommation du glucose, on a utilisé des doses de 1 à 4 Mg/kg de citrate de vinburnine chez des chiens auxquels on administre du deoxyglucose marqué au C14, par voie orale.
(§2) Cette différence observée dans l'importance de la dissociation de l'oxyhémoglobine par la vinburnine et le citrate de vinburnine est illustrée sur le graphique de la Fig.2.

oxyhémoglobine = assay: Dissociation of oxyhaemoglobin in anaesthetised dogs (Fig. 2); type: in vivo, chiens; conditions: 5mg/kg (Fig. 2)
Text: as §1, §2

[3] = tested on: circulation cérébrale (artère carotide interne); assay: Cerebral circulation (internal carotid artery) and vascular resistance after intravenous and intra-arterial administration in dogs; type: in vivo, chiens; conditions: relative to vinburnine = 1,0 (arbitrary); for CERVEAU Diminution résistance vasculaire i.v. / CERVEAU augmentation circulation i.v.: 1 à 4 mg/kg, 4 mg/kg
Experimental: D'autre part, on a réalisé une étude spr la pression sanguine et la circulation cérébrale en administrant des doses intraveineuses de 1 à 4 mg/kg d'animal.
Dans l'étude de l'effet de ce composé, on a enregistré et calculé la circulation cérébrale (artère carotide interne) et la résistance vasculaire lors de l'administration des composés par voie intraveineuse et intraartérielle chez des chiens. Les valeurs données dans le tableau suivant sont rapportés à la valeur de 1,0 donnée arbitrairement à la vinburnine.

Solubility in water = type: physicochemical; conditions: water / aqueous solution

SMILES | valeurs de DL50 ([1]; in words, compared with vinburnine base) | DL50 [1] | consommation cérébrale du C14-desoxyglucose [2] | dissociation de l'oxyhémoglobine (oxyhémoglobine) | CERVEAU Diminution résistance vasculaire i.a. [3] | CERVEAU augmentation circulation i.a. [3] | CERVEAU Diminution résistance vasculaire i.v. [3] | CERVEAU augmentation circulation i.v. [3] | solubilité dans l'eau (Solubility in water)
CC[C@]12CCCN3CCc4c(n(c5ccccc45)C(=O)C1)[C@@H]32 [citrate de vinburnine, citrate de (-) vinburnine] | sensiblement inférieures à celles correspondant à la vinburnine sous forme de base | 1,2 | consommation du glucose plus importante | augmentation dans la dissociation de l'oxyhémoglobine | 0,6 | 0,8 | 0,8 | 0,9 | soluble en solution aqueuse
CC[C@]12CCCN3CCc4c(n(c5ccccc45)C(=O)C1)[C@@H]32 [vinburnine] | – | 1,0 | augmentation de la consommation cérébrale du C14-desoxyglucose | – | 1,0 | 1,0 | 1,0 | 1,0 | insoluble dans l'eau
